What was measured:
[1] = tested on: TLR8; details: cited from earlier work
[2] = tested on: mixed human atheroma cell culture; assay: IFNα production (ELISA) in mixed cell type atheroma cell culture; assay type: cell-based; details: 1 μM, 24 hours
Procedure: Carotid endarterectomies from patients undergoing surgery for carotid disease were obtained at Charing Cross Hospital, London. The protocol was approved by the Research Ethics Committee RREC2989. All patients gave written informed consent, according to the Human Tissue Act 2004 (UK). Single cell suspensions of mixed cell types were obtained via enzymatic digestion and cultured for 24 hours as previously described (18).
SMC were cultured in 50 cm^2 tissue culture dishes and grown until near confluence. AthSMC and AoSMC were serum starved for 24 hours and then cultured in DMEM either alone or in the presence of 10 ng/ml IL1a, 100 ng/ml Pam3Cys, 100 ng/ml FSL-1 (Pam2CGDPKHPKSF), 25 μg/ml Poly(I:C), 100 ng/ml Lipopolysaccharide (LPS), 1 μg/ml R837 (Imiquimod) and 1 μg/ml PolyU (all purchased from Invivogen). […] The concentrations used were selected on the basis of dose-response experiments as the dose with maximal effect in absence of cell death monitored via MTT.
(§1) Cytokine production in supernatants of AthSMC and AoSMC were measured by ELISA using IL-6, IL-8 and CCL2/MCP-1 (Pharmingen, UK). IFNα was detected via a high sensitivity ELISA kit from R&D Systems. Each condition was tested in triplicate and each triplicate was analyzed separately. Concomitantly, viability was monitored with the use of 3-(4,5-dimethyl[…])-2,5-diphenyltetrazolium (MTT) (Sigma, UK).

[3] = tested on: human atheroma-derived smooth muscle cells (AthSMC); assay: Cytokine production (ELISA) by SMC stimulated with TLR agonists for 24 hours, AthSMC compared to AoSMC; assay type: cell-based; details: 24 hours stimulation
Procedure: AthSMC were isolated from the mixed atheroma cells via magnetic cell sorting (Miltenyi, MACS), utilizing anti-CD45 (pan-leukocyte marker) and anti-CD31 (endothelial cells) antibodies coupled to microbeads. SMC expressing SMC-alpha actin composed >90% of the cells. Control AoSMC were purchased from Promocell (Germany). Both SMC types were grown in SMC medium (Promocell, Germany) and used at passage 3 consistently in all experiments. The protocols of stimulation with TLR ligands are described below.
SMC were cultured in 50 cm^2 tissue culture dishes and grown until near confluence. AthSMC and AoSMC were serum starved for 24 hours and then cultured in DMEM either alone or in the presence of 10 ng/ml IL1a, 100 ng/ml Pam3Cys, 100 ng/ml FSL-1 (Pam2CGDPKHPKSF), 25 μg/ml Poly(I:C), 100 ng/ml Lipopolysaccharide (LPS), 1 μg/ml R837 (Imiquimod) and 1 μg/ml PolyU (all purchased from Invivogen). Cells were serum starved for 24 h prior to stimulation with the indicated agonists. Supernatants were collected 24 hours after stimulation and frozen at −80° C. for batch analysis via ELISA. In the experiments performed on the mixed human atheroma cell culture, cells were cultured immediately after isolation at 10^6 cells per milliliter in RPMI containing 5% fetal bovine serum (Biosera, UK) in the presence or absence of 25 μg/ml Poly(I:C), 1 μM CpG ODN2006 and 1 μM CpG ODN2006 control (Invivogen) for 24 and 48 hours. The concentrations used were selected on the basis of dose-response experiments as the dose with maximal effect in absence of cell death monitored via MTT.
as §1

[4] = tested on: AthSMC and AoSMC; assay: TLR3 gene expression by Q-PCR in stimulated SMC; assay type: cell-based, human; details: 5 hours
Procedure: Alternatively, AoSMc and AthSMC were stimulated with 25 μg/ml Poly(I:C) or interferon α (IFN α) at 10 ng/mL or IFNy at 10 ng/mL. Total RNA was extracted as before and TLR3 gene expression was quantified via Q-PCR with TaqMan® Gene Expression Assays (Hs01551078_m1*; Applied Biosystems Inc.).

[5] = tested on: TLR3−/− mice; assay: Perivascular collar injury: elastic lamina breaks; assay type: in vivo; details: systemic administration 250 μg i.p.
Procedure: (§2) At 22 weeks of age, male C57BL/6 and TLR3^−/− mice were anesthetized with isofluorane by inhalation, the left carotid artery dissected and a non-occlusive tygon collar (length 2.5 mm; internal bore diameter, 510 μm, Cole-Parmer, London, UK) placed around the carotid artery. Mice received 250 μg Poly(I:C) (Sigma, Dorset, UK) or PBS intraperitoneally on alternate days for a total of 8 doses starting 4 days after surgery. Twenty-one days following collar placement, mice were euthanized, and neointima development and the presence of elastic lamina breaks were assessed as described below.
Elastin-stained slides were also used to assess the integrity of the elastic laminae. The portion of the carotid artery distal to the collar (the same as used for neointima assessment) was divided into 5 segments and representative sections from each segment were evaluated for the presence of interruptions in the elastic lamina. The width of any observed break was measured by drawing a line between the start and end of a break in the external elastic lamina using ProgRes CapturePro image analysis software (version 2.5.2.0, Jenoptik). The width of any elastic lamina break was calculated as the mean width of break across all sections examined for each mouse. […]

[6] = tested on: AthSMC and AoSMC; assay: Atherosclerosis RT2 Profiler PCR Array gene expression in SMC stimulated with Poly(I:C) for 5 hours; assay type: cell-based, human; details: 25 μg/ml
Procedure: SMCs were plated in 9.6 cm^2 dishes and grown until near confluence. SMCs were serum starved for 24 h prior to stimulation with 25 μg/ml Poly(I:C) for 5 hours. Total cellular RNA was extracted from SMC using RNeasy® Mini Kit (Qiagen) according to the manufacturer's instructions. To remove any residual genomic DNA, RNA samples were treated with DNase (TurboDNase, Ambion) according to manufacturer's instructions. RNA was reverse transcribed to cDNA using M-MLV Reverse Transcriptase (Promega, UK). Quantitative PCR (QPCR) analysis of 84 atherosclerosis related genes was performed using Atherosclerosis RT2 Profiler PCR Arrays (SA Bioscience Corporation, USA) as per the manufacturer's protocol. The complete list of the genes analyzed is available online at http://www.sabiosciences.com/rt_per_product/HTML/PAHS-038A.html. RT2 Profiler PCR arrays were run on an ABI 7900HT machine (Applied Biosystems). Duplicate arrays were run per condition for unstimulated and Poly (I:C)-stimulated AoSMC and AthSMC. Data analysis was performed using the manufacturer's integrated web-based software package for the PCR Array System using Ct based fold-change calculations.

[7] = tested on: C57BL/6 and TLR3−/− mice; assay: Perivascular collar injury: neointima formation (intima/media ratio); assay type: in vivo
Procedure: as §2
Twenty days following collar placement, mice were euthanized, terminal blood collected via cardiac puncture and the vasculature perfused with 0.9% saline. Injured carotids were dissected out and frozen at −80° C. in Optimal cutting temperature (OCT) compound (ThermoScientific, Runcorn, UK). Sham-operated contralateral arteries were used as controls. Mice were fed regular chow throughout the duration of the experiment.
For the injured carotid artery, serial 5 μm cryosections were taken of the carotid tissue distal to the collar. Five sections were collected on each slide and 15 to 25 slides were collected per arterial segment. The first five alternate slides were stained with Accustain elastic stain kit (Sigma) according to manufacturer's instructions. Measurement of lesion and vessel areas was performed on one section per stained slide using ProgRes CapturePro image analysis software (version 2.5.2.0, Jenoptik, Germany). The area between the internal and external elastic […] was taken as the medial area and the intimal area was calculated by subtracting the lumen area from the internal elastic lamina area. The intimal medial ratio (IMR) was then calculated by dividing the intimal area by the medial area. The IMR measurements were then averaged for each mouse.

[8] = tested on: C57BL/6 mice; assay: Gene expression in aortas and lymphoid tissues after chronic Poly(I:C) stimulation for 3 weeks; assay type: in vivo; details: chronic stimulation 3 weeks
Excerpt: FIG. 10 Gene expression of anti-inflammatory factors is increased in aortas and lymphoid tissues in C57BL/6 mice treated with Poly(I:C) Aortas, spleens and para-aortic lymph nodes (PALN) of C57BL/6 mice that underwent carotid artery injury and PBS or Poly(I:C) treatment were collected at sacrifice. RNA was extracted and gene expression of CCL5, IFNβ, PD-L1, PD-L2, and IL-10 in the aorta (A), spleen (B) and PALN(C) was examined by RT-PCR. Bars show overall mean±SEM (n=4 mice per group, *p<0.05, **p<0.01 PBS v. Poly(I:C); unpaired student's t-test). Abbreviations: IFNβ: Interferon beta, IL-10: Interleukin-10, PD-L1: programmed death-ligand 1, PD-L2: programmed death-ligand 2.
as §2
(§3) Total RNA was isolated from murine tissues using the Qiagen RNeasy kit (Qiagen, Crawley, UK) according to the manufacturer's instructions. Total RNA was treated with DNase I and reverse-transcribed to cDNA using M-MLV Reverse Transcriptase RNase H-, Point Mutant (Promega, UK) and oligo(dT) primer. RT-PCR was performed using TaqMan Gene Expression Assays (CCL5 (Mm01302427_m1), VCAM1 (Mm01320970_m1), CCL2 (Mm00441242_m1), TLR3 (Mm01207403_m1), IL-10 (Mm01288386_m1), PD-L1 (Mm00452054_m1*), PD-L2 (Mm00451734_m1*) IFNβ (Mm00439552_s1*), (Applied Biosystems) and TaqMan universal PCR Master Mix (Applied Biosystems) on a 7900HT Fast Real-Time PCR System (Applied BioSystems). PCR amplification was carried out for 40 cycles. Samples were normalized to β-actin. The 2-ΔΔCt method was used to analyze the relative changes in gene expression.

[9] = tested on: C57BL/6, ApoE−/− and TLR3−/− mice; assay: Vascular gene expression (quantitative RT-PCR) 24 hours after a single i.p. dose of Poly(I:C); assay type: in vivo
Procedure: FIG. 2 Aortic gene expression of both pro- and anti-inflammatory factors is induced by Poly(I:C) stimulation. 10- and 30-week old C57BL/6, ApoE−/− and TLR3−/− mice were stimulated with PBS or 250 μg Poly(I:C) in PBS. 24 hours post-stimulation, mice were sacrificed, aortas harvested and RNA extracted. Gene expression of CCL5 (A), IL-10 (B), VCAM-1 (C) and IFNβ (D) was examined by quantitative RT-PCR. Bars show overall mean±SEM (n=3-5 mice per group; *p<0.05, **p<0.01, ***p<0.001 PBS v. Poly(I:C); unpaired student's t-test).
as §3

[10] = Poly(I:C) 25 μg/ml, FSL-1 100 ng/ml
[11] = single dose 250 μg i.p., 24 hours

CCCc1nc2c(N)nc3ccccc3c2s1 [CL075]
Agonist strength for TLR8 relative to TLR7 [1]: ~10 ×

CCCCNc1nc(N)c2[nH]c(=O)n(Cc3ccc(C(=O)NCC(=O)O)cc3)c2n1 [CL264]
TLR8 activation / stimulation ([1]; CL264: even at high concentrations (>10 mg/ml)): does not stimulate TLR8

CpG ODN2006
IFNα production [2]: Type I interferons are produced in the mixed cell culture population in response to TLR9 stimulation

FSL-1
IL-6 expression, AthSMC compared to AoSMC [3, 10]: enhanced response | IL-8 expression, AthSMC compared to AoSMC [3, 10]: enhanced response

IFNα
TLR3 gene expression ([4]; AoSMC and AthSMC, IFN 10 ng/mL): able to increase the expression of TLR3

Polyriboinosinic-polycytidylic acid [Poly(I:C)]
Elastic lamina breaks (frequency, depth and width) [5]: reduced the frequency, depth and width of the elastic lamina breaks | Expression of selected genes of inflammatory cell recruitment (e.g. VCAM1, CCL5) and regulation of inflammation (e.g. A20, BIRC3/cIAP) [6]: significantly increased the expression | TLR3 dependent response in AthSMC compared to AoSMC (fold change in IL-6 production, FIG. 1B) ([3]; 25 μg/ml): over 40 fold | CCL2/MCP-1 expression, AthSMC compared to AoSMC [3, 10]: enhanced expression | IL-6 expression, AthSMC compared to AoSMC [3, 10]: enhanced expression | IL-8 expression, AthSMC compared to AoSMC [3, 10]: enhanced expression | Neointima formation, intima/media ratio, compared to vehicle ([7]; C57BL/6 mice, 250 μg i.p., 21 days after injury, p<0.001): significantly reduced | Protection against neointima formation ([7]; TLR3−/− mice, 250 μg i.p., p>0.05): ablated | End-weight of mice ([7]; all groups, Poly(I:C) or vehicle): No difference | Expression of CCL5 in the aorta [8]: significantly increased | Expression of IFNβ in the aorta [8]: significantly increased | Expression of IFNβ mRNA in the spleen [8]: induced | Expression of IL10 in the aorta [8]: significantly increased | Gene expression of PD-L1 in the para-aortic lymph nodes [8]: induced | Gene expression of PD-L2 in the para-aortic lymph nodes [8]: induced | Gene induction in aorta of ApoE−/− mice with advanced disease compared to young ApoE−/− ([9]; 30-week vs 10-week old ApoE−/− mice): more pronounced | Gene induction in carotid artery tissue compared to aorta ([9]; CCL5, CCL2, VCAM1, single dose 250 μg): even more marked | Expression of the induced genes in TLR3−/− mice ([9]; TLR3−/− mice, single dose 250 μg): almost abrogated | A20 induction ([9]; mice, single dose 250 μg i.p.): A20 induction was not observed | Aortic expression of CCL2/MCP-1 [9, 11]: induced the aortic expression | Aortic expression of CCL5/RANTES [9, 11]: induced the aortic expression | Aortic expression of IFNβ [9, 11]: induced the aortic expression | Aortic expression of IL-10 [9, 11]: induced the aortic expression | Aortic expression of PD-L2 [9, 11]: induced the aortic expression | Aortic expression of VCAM-1 [9, 11]: induced the aortic expression | TLR3 gene expression in vascular tissues (aorta, carotid arteries) ([9]; single dose 250 μg, 24 hours): up-regulated TLR3 gene expression | TLR3 gene expression ([4]; AoSMC, 25 μg/ml): not in AoSMC | TLR3 gene expression ([4]; AthSMC, 25 μg/ml): able to upregulate the expression of TLR3

— US20140005255A1, “Agonists Of Toll Like Receptor For Treating Cardiovasuclar Disease And Obesity” (priority 2010, published 2014)
